Square brackets hold non-standard residues; d marks the D form. Peptide text beside a SMILES is read from it. Ala(4-thiazolyl) = N[C@@H](Cc1cscn1)C(=O)O; 2Pal = N[C@@H](Cc1ccccn1)C(=O)O; 3Pal = N[C@@H](Cc1cccnc1)C(=O)O; 2Thi = N[C@@H](Cc1cccs1)C(=O)O

In BindingDB's records for doi:10.1021/jm00007a020 (Eastern Michigan University, 1995) one finds Ki data, which are given here for ten molecules.

The experiment in a line: Inhibition of [3H]- DPDPE binding to delta opioid receptor of guinea pig brain.
What is called Ki is the dissociation constant of the complex between target and ligand, obtained from inhibition or displacement. Read a high Ki as lower affinity. `CC(C)[C@H](NC(=O)[C@H](CC(=O)O)NC(=O)[C@H](Cc1cccs1)NC(=O)[C@H](C)NC(=O)[C@@H](N)Cc1ccc(O)cc1)C(=O)N[C@H](C(=O)NCC(N)=O)C(C)C` [(S)-3-((S)-2-{(S)-2-[(S)-2-Amino-3-(4-hydroxy-phenyl)-propionylamino]-propionylamino}-3-thiophen-2-yl-propionylamino)-N-{(S)-1-[(S)-1-(carbamoylmethyl-carbamoyl)-2-methyl-propylcarbamoyl]-2-methyl-propyl}-succinamic acid] (H-YA[2Thi]DVVG-NH2) had an inhibition constant (Ki) of 0.0014 µM.

The molecule `CC(C)[C@H](NC(=O)[C@H](CC(=O)O)NC(=O)[C@H](Cc1cscn1)NC(=O)[C@H](C)NC(=O)[C@@H](N)Cc1ccc(O)cc1)C(=O)N[C@H](C(=O)NCC(N)=O)C(C)C` [(S)-3-((S)-2-{(S)-2-[(S)-2-Amino-3-(4-hydroxy-phenyl)-propionylamino]-propionylamino}-3-thiazol-4-yl-propionylamino)-N-{(S)-1-[(S)-1-(carbamoylmethyl-carbamoyl)-2-methyl-propylcarbamoyl]-2-methyl-propyl}-succinamic acid] (H-YA[Ala(4-thiazolyl)]DVVG-NH2) gave an inhibitory constant (Ki) of 0.04 µM.

`CC(C)[C@H](NC(=O)[C@H](CC(=O)O)NC(=O)[C@H](Cc1ccccn1)NC(=O)[C@H](C)NC(=O)[C@@H](N)Cc1ccc(O)cc1)C(=O)N[C@H](C(=O)NCC(N)=O)C(C)C` [(S)-3-((S)-2-{(S)-2-[(S)-2-Amino-3-(4-hydroxy-phenyl)-propionylamino]-propionylamino}-3-pyridin-2-yl-propionylamino)-N-{(S)-1-[(S)-1-(carbamoylmethyl-carbamoyl)-2-methyl-propylcarbamoyl]-2-methyl-propyl}-succinamic acid] (H-YA[2Pal]DVVG-NH2) displayed an inhibitory constant (Ki) of 0.062 µM.

With `CC(C)[C@H](NC(=O)[C@H](CC(=O)O)NC(=O)[C@H](Cc1cccc(F)c1)NC(=O)[C@H](C)NC(=O)[C@@H](N)Cc1ccc(O)cc1)C(=O)N[C@H](C(=O)NCC(N)=O)C(C)C` [(S)-3-[(S)-2-{(S)-2-[(S)-2-Amino-3-(4-hydroxy-phenyl)-propionylamino]-propionylamino}-3-(3-fluoro-phenyl)-propionylamino]-N-{(S)-1-[(S)-1-(carbamoylmethyl-carbamoyl)-2-methyl-propylcarbamoyl]-2-methyl-propyl}-succinamic acid], the inhibitory constant (Ki) came to 0.0736 µM.

The molecule `Cc1c(C)c(C)c(C[C@H](NC(=O)[C@H](C)NC(=O)[C@@H](N)Cc2ccc(O)cc2)C(=O)N[C@@H](CC(=O)O)C(=O)N[C@H](C(=O)N[C@H](C(=O)NCC(N)=O)C(C)C)C(C)C)c(C)c1C` [(S)-3-((S)-2-{(S)-2-[(S)-2-Amino-3-(4-hydroxy-phenyl)-propionylamino]-propionylamino}-3-pentamethylphenyl-propionylamino)-N-{(S)-1-[(S)-1-(carbamoylmethyl-carbamoyl)-2-methyl-propylcarbamoyl]-2-methyl-propyl}-succinamic acid] gave a Ki of 10 µM.

In turn, `CC(C)[C@H](NC(=O)[C@H](CC(=O)O)NC(=O)[C@H](Cc1ccc(F)cc1)NC(=O)[C@H](C)NC(=O)[C@@H](N)Cc1ccc(O)cc1)C(=O)N[C@H](C(=O)NCC(N)=O)C(C)C` [(S)-3-[(S)-2-{(S)-2-[(S)-2-Amino-3-(4-hydroxy-phenyl)-propionylamino]-propionylamino}-3-(4-fluoro-phenyl)-propionylamino]-N-{(S)-1-[(S)-1-(carbamoylmethyl-carbamoyl)-2-methyl-propylcarbamoyl]-2-methyl-propyl}-succinamic acid] registered a Ki of 0.703 µM.

As to `CC(C)[C@H](NC(=O)[C@H](CC(=O)O)NC(=O)[C@H](Cc1c(F)c(F)c(F)c(F)c1F)NC(=O)[C@H](C)NC(=O)[C@@H](N)Cc1ccc(O)cc1)C(=O)N[C@H](C(=O)NCC(N)=O)C(C)C` [(S)-3-((S)-2-{(S)-2-[(S)-2-Amino-3-(4-hydroxy-phenyl)-propionylamino]-propionylamino}-3-pentafluorophenyl-propionylamino)-N-{(S)-1-[(S)-1-(carbamoylmethyl-carbamoyl)-2-methyl-propylcarbamoyl]-2-methyl-propyl}-succinamic acid], the affinity corresponds to a Ki of 0.135 µM.

As for `Cc1ccc(C[C@H](NC(=O)[C@H](C)NC(=O)[C@@H](N)Cc2ccc(O)cc2)C(=O)N[C@@H](CC(=O)O)C(=O)N[C@H](C(=O)N[C@H](C(=O)NCC(N)=O)C(C)C)C(C)C)cc1` [(S)-3-((S)-2-{(S)-2-[(S)-2-Amino-3-(4-hydroxy-phenyl)-propionylamino]-propionylamino}-3-p-tolyl-propionylamino)-N-{(S)-1-[(S)-1-(carbamoylmethyl-carbamoyl)-2-methyl-propylcarbamoyl]-2-methyl-propyl}-succinamic acid], the Ki was 2.65 µM.

The molecule “H-YAHDVVG-NH2 [(S)-3-[(S)-2-{(S)-2-[(S)-2-Amino-3-(4-hydroxy-phenyl)-propionylamino]-propionylamino}-3-(3H-imidazol-4-yl)-propionylamino]-N-{(S)-1-[(S)-1-(carbamoylmethyl-carbamoyl)-2-methyl-propylcarbamoyl]-2-methyl-propyl}-succinamic acid]” showed an inhibitory constant (Ki) of 0.317 µM.

Regarding `CC(C)[C@H](NC(=O)[C@H](CC(=O)O)NC(=O)[C@H](Cc1cccnc1)NC(=O)[C@H](C)NC(=O)[C@@H](N)Cc1ccc(O)cc1)C(=O)N[C@H](C(=O)NCC(N)=O)C(C)C` [(S)-3-((S)-2-{(S)-2-[(S)-2-Amino-3-(4-hydroxy-phenyl)-propionylamino]-propionylamino}-3-pyridin-3-yl-propionylamino)-N-{(S)-1-[(S)-1-(carbamoylmethyl-carbamoyl)-2-methyl-propylcarbamoyl]-2-methyl-propyl}-succinamic acid] (H-YA[3Pal]DVVG-NH2), the Ki turned out to be 0.05 µM.
